Measurements from ChEMBL document CHEMBL1201862, “PubChem BioAssay data set” (2004).
Activity calls are given as the source filed them.

What was measured:
[1] = target: Voltage-gated inwardly rectifying potassium channel KCNH2 (Homo sapiens, UniProt Q12809); settings: Potency;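 also: confirmatory quantitative high-throughput screen measuring inhibition of hERG channel activity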
[2] = target: FAD-linked sulfhydryl oxidase ALR (Homo sapiens, UniProt P55789); test: ALR-catalysed DTT oxidation blockers – biochemical, H2O2 detection, luminescence, cherry-pick, dose response (AID 493248)
[3] = target: T1, Apoptotic protease-activating factor 1 (Homo sapiens, UniProt O14727); test: activation of Apaf-1 mediated apoptosis – fluorescent, uHTS hits, dose response (AID 588554); type: functional
T1 sequence (O14727 whole entry): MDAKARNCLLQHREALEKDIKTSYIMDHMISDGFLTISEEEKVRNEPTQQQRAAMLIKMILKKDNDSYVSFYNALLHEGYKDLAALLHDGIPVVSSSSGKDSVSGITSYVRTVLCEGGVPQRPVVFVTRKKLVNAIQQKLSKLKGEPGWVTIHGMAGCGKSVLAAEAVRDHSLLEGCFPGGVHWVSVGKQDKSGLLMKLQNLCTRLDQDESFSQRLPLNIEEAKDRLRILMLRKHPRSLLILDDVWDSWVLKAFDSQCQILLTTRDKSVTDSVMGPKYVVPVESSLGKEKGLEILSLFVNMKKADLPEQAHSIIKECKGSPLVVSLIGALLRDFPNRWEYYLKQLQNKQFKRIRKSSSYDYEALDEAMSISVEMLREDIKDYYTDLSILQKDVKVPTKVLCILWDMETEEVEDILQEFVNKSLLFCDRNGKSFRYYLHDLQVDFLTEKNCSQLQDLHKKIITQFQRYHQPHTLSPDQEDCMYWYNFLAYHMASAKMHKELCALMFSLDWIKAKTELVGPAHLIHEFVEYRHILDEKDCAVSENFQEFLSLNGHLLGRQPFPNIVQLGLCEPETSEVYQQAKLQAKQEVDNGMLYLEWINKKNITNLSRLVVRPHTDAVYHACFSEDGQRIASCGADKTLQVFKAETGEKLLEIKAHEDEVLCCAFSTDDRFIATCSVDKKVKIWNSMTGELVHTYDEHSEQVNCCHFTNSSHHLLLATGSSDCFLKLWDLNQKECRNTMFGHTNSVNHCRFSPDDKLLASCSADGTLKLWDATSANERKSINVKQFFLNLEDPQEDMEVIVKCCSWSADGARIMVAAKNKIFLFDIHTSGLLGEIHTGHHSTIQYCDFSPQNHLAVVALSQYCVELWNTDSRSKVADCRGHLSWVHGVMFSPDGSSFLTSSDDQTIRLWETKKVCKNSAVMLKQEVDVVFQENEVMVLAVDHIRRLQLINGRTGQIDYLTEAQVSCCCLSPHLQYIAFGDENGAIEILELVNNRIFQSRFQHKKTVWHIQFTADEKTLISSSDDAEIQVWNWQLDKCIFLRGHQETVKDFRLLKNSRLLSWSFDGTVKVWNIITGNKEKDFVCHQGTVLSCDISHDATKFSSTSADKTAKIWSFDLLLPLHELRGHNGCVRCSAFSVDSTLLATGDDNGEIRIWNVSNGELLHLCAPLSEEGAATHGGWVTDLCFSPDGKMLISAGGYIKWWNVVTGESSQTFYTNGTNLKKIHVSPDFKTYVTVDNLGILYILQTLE

[4] = non-specific 3'UTR reporter inhibition in Clone20-Shn3RL – cell-based, Renilla luciferase, cherry-picked, counter-screen for Shn3 inhibitor project, dose response (AID 624133); type: functional
[5] = reduction of Shn3 3'UTR-driven luciferase in osteoblasts – cell-based, Clone20 osteoblasts, firefly luciferase, cherry-picked, dose response (AID 624132); type: functional;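 also: firefly luciferase luminescence from reporter carrying the Shn3 3'UTR in osteoblasts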
A-375 [6] = test: proliferation inhibition in MITF-low A375 cells – cell-based, cherry-pick samples, set 2, counter-screen for MITF modulator project, dose response (AID 540335); type: functional; settings: Homo sapiens
[7] = Luminescence Cell-Based Dose Retest to Confirm Inhibitors of Cancer Stem Cells. [Related pubchem assays (depositor defined):AID2717, AID2721]; type: functional; settings: Homo sapiens
[8] = target: T2, Microphthalmia-associated transcription factor (Homo sapiens, UniProt O75030); test: reducers of TRPM1 reporter luminescence, concentration series – cell-based, SK-MEL-5, cherry-picked, set 3, MITF inhibitor project, dose response (AID 493073); type: functional;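 also: SK-MEL-5 melanoma cells with luciferase driven by the MITF target TRPM1 promoter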
T2 sequence (O75030 whole entry): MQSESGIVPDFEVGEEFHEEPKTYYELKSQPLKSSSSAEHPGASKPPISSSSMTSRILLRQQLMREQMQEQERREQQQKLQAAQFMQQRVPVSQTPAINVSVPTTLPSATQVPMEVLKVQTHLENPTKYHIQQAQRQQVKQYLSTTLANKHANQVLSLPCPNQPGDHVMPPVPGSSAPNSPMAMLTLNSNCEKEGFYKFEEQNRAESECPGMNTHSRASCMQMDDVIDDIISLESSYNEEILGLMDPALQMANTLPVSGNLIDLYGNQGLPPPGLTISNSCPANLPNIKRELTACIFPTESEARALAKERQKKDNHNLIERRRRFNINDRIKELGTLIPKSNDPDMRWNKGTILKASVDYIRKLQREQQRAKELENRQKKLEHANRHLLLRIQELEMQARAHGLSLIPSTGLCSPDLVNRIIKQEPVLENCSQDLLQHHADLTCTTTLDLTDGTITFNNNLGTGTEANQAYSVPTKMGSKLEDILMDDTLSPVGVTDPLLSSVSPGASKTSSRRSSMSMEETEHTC

[9] = loss of viability in HepG2 cells – cell-based, CellTiter-Glo, cherry-picked, cytotoxicity control for Shn3 inhibitor project, dose response (AID 624134); type: functional
A-375 [10] = test: MITF: Counter assay: A375 proliferation Measured in Cell-Based System Using Plate Reader - 2084-03_Inhibitor_Dose_DryPowder_Activity. [Related pubchem assays (depositor defined):AID488944]; type: functional; settings: Homo sapiens
[11] = target: Eukaryotic translation initiation factor 4E (Mus musculus, UniProt P63073); test: blockers of eIF4G binding by eIF4E – biochemical, TR-FRET, dose response (AID 855); type: functional;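 also: potency for disrupting eIF4E binding to eIF4GI seen as loss of FRET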
[12] = THP-1 cell cytotoxicity, dose response, cytotoxicity control for non-replicating M. tuberculosis project (AID 489025); type: functional
cells = type: functional
Beta-galactosidase = Beta-galactosidase (Escherichia coli, UniProt Q8VNN2); test: detection-enzyme interference by beta-gal modulators – biochemical, E. coli enzyme, set 3, artefact control for CCR6 antagonist project, dose response (AID 504712); type: functional
DNA topoisomerase = DNA topoisomerase (Yersinia pestis, UniProt A0A2S9PM60); test: Yersinia topoisomerase I cleavage product accumulation – biochemical, cherry-pick, dose response (AID 588525)
[13] = target: T3, Endoribonuclease toxin MazF (Escherichia coli K-12, UniProt P0AE70); test: activation of MazEF endoribonuclease cleavage – biochemical, fluorescence, single-stranded RNA substrate, uHTS hits, dose response (AID 588481); type: functional
Beta Lactamase = Beta Lactamase (Pseudomonas aeruginosa, UniProt Q932Y6); test: BLA reporter interference, concentration series – BLA reporter cells, FRET fluorescence, artefact control for TLR9-MyD88 binding inhibitor project, dose response (AID 588341); type: cell-based;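 also: cell based assay in CHO-K1 cells stably expressing beta-lactamase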
[14] = target: T3, Endoribonuclease toxin MazF; test: substrate-only fluorescence increase artefacts – biochemical, single-stranded RNase substrate, counter-screen for MazEF activator project, dose response (AID 588502); type: functional
CHO = CHO cell viability loss, potency – luminescence, cytotoxicity control for TLR9-MyD88 binding inhibitor project, dose response (AID 588339); type: functional, cell-based, hamster; settings: Cricetulus griseus;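 also: CHO cells stably coexpressing TLR9 and MyD88 fusions from primary screen; compound exposure lasted 48 hours before viability readout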
[15] = target: Serine/threonine-protein phosphatase (Candida dubliniensis (strain CD36 / CBS 7987 / NCPF 3949 / NRRLY-17841) (Yeast), UniProt B9W6M3); test: blockers of CaCl2-induced CDRE-lacZ signaling – S. cerevisiae, luminescence, secondary, dose response (AID 2388); type: functional, cell-based;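 also: yeast reporter cells carrying a calcineurin-responsive lacZ construct stimulated with calcium chloride; luminescent beta-galactosidase reporter signal in whole cells rather than isolated phosphatase activity; potency for inhibition where a drop in reporter signal means calcineurin blockade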
Large T antigen = Large T antigen (Simian virus 40, UniProt P03070); type: functional, Betapolyomavirus macacae;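 also: Confirmatory-stage PubChem screen for compounds that inhibit SV40 T antigen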
[16] = fluconazole-exposed Candida albicans growth modulators – fluorescence, retest, confirmation (AID 2467); type: functional, cell-based
[17] = target: ATP-dependent molecular chaperone HSP82 (Candida albicans (strain WO-1) (Yeast), UniProt C4YTQ8); test: steroid-induced GRE reporter decrease in yeast – S. cerevisiae, luminescence, Hsp90 inhibitor project, dose response (AID 2400); type: functional, cell-based;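 also: beta-galactosidase luminescence from glucocorticoid response element reporter as proxy for Hsp90 function; inhibitor potency where signal loss means Hsp90 inhibition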
[18] = NIH-3T3 fibroblast cytotoxicity, dose response, cytotoxicity control, cell-based, fluorescence, Alamar Blue, secondary assay (AID 2327); type: functional;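 also: NIH-3T3 mouse fibroblasts cultured with fluconazole at 8 µg/mL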
HeLa = test: ATP-based viability loss in HeLa cells – cell-based, CellTiter-Glo luminescence, cherry-pick samples, cytotoxicity control for MITF activator project, dose response (AID 540259); type: functional; settings: Homo sapiens
HEK293 [19] = test: HEK293T cell viability loss, resazurin readout – resazurin fluorescence, cytotoxicity control for NF-kB activator project, SAR follow-up (AID 493251); type: functional, cell-based; settings: Homo sapiens
HEK293 [20] = test: SAR Analysis of small molecule inhibitors of B-cell specific antigen receptor-induced NF-kB activation in a HEK-293T cell line using a luminescence assay - Set 2. [Related pubchem assays (depositor defined):AID435022, AID435025, AID489021]; type: functional, cell-based; settings: Homo sapiens
Jurkat = test: SAR Analysis of small molecule inhibitors of […] specific antigen receptor-induced NF-kB activation in a Jurkat cell line using a luminescence assay - Set 3. [Related pubchem assays (depositor defined):AID435022, AID435025, AID465]; type: functional, cell-based; settings: Homo sapiens
[21] = target: Cyclin-dependent kinase 5/CDK5 activator 1 (Homo sapiens, UniProt Q00535); test: human CDK5 activity blockade – biochemical, microfluidic mobility shift, dry powder, selectivity assay for GSK-3 alpha inhibitor project, dose response (AID 588430)
[22] = target: Glycogen synthase kinase-3 alpha (Homo sapiens, UniProt P49840); test: Inhibition of Human GSK-3 alpha Activity Measured in Biochemical System Using Microfluidics - 2063-06_Inhibitor_Dose_DryPowder_Activity_Set2. [Related pubchem assays (depositor defined):AID2709]
[23] = target: Glycogen synthase kinase-3 beta (Homo sapiens, UniProt P49841); test: Inhibition of Human GSK-3 beta Activity Measured in Biochemical System Using Microfluidics - 2063-05_Inhibitor_Dose_DryPowder_Activity_Set2. [Related pubchem assays (depositor defined):AID2709]
[24] = target: Luciferin 4-monooxygenase (Photuris pensylvanica, UniProt Q27757); test: inhibition of Cell Titer Glo luciferase signal – biochemical, luminescence, cherry-picks, counter-screen for HSF-1 reporter inhibitor project, dose response (AID 588847)
Candida albicans [25] = test: fluconazole-resistant Candida strain growth inhibitors – CaCi-8 strain, dry powder, set 4, dose response (AID 488950); type: functional, organism-based
Candida albicans [26] = test: Candida growth reduction in fluconazole presence – CaCi-2 strain, Alamar Blue, dry powder, set 2, antifungal resistance reversal project, dose response (AID 488930); type: functional, organism-based
Candida albicans [27] = test: C. albicans growth inhibition with fluconazole – CaCi-2 strain, Alamar Blue, dry powder, set 4, dose response (AID 488943); type: functional, organism-based
Candida albicans [28] = test: resistant Candida growth with fluconazole co-treatment – CaCi-8 strain, Alamar Blue, dry powder, set 2, dose response (AID 488909); type: functional, organism-based

T3 sequence (P0AE70 whole entry): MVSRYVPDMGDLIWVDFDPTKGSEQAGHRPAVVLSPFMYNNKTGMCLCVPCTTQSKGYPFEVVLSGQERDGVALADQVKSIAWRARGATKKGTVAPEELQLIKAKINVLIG
Sequence of FAD-linked sulfhydryl oxidase ALR (P55789 whole entry): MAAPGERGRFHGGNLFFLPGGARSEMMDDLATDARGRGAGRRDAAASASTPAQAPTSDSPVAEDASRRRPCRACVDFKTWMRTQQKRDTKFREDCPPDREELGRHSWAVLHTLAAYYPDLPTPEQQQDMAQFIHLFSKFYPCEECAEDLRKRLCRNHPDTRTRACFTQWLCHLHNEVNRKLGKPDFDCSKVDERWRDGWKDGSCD
Sequence of Serine/threonine-protein phosphatase (B9W6M3 whole entry): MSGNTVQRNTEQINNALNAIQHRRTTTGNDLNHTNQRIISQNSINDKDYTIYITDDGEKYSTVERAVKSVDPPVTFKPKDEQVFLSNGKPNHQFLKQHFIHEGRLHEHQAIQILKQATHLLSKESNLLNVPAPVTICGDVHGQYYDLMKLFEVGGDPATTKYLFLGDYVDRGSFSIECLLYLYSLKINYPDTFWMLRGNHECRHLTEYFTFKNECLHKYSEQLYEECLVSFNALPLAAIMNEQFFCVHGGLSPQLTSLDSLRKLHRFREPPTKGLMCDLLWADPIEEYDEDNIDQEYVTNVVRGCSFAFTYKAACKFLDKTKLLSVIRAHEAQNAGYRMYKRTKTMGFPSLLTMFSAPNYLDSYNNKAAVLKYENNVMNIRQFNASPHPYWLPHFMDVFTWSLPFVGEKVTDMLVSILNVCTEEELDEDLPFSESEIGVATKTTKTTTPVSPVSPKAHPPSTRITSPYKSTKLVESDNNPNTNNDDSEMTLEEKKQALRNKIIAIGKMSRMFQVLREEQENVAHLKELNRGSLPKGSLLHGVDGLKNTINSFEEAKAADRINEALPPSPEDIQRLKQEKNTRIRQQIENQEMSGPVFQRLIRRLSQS
Sequence of Large T antigen (P03070 whole entry): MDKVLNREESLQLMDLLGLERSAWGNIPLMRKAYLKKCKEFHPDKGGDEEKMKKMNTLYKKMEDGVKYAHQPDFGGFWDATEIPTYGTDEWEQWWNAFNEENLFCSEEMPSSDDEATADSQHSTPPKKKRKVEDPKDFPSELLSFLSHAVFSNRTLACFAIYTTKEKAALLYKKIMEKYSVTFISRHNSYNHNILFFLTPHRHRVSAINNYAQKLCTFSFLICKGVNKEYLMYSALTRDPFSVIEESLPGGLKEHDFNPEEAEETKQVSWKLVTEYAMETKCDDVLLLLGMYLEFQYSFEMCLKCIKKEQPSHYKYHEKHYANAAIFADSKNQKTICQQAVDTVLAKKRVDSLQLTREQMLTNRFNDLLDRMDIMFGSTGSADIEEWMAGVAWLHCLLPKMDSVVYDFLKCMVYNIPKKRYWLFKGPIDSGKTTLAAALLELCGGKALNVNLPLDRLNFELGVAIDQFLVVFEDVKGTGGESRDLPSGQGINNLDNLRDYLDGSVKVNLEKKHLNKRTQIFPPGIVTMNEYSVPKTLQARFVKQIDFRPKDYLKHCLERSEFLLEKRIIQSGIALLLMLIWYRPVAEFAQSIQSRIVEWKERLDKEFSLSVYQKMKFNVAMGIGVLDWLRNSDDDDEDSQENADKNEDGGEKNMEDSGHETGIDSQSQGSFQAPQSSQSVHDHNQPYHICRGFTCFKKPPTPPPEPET
Sequence of Cyclin-dependent kinase 5/CDK5 activator 1 (Q00535 whole entry): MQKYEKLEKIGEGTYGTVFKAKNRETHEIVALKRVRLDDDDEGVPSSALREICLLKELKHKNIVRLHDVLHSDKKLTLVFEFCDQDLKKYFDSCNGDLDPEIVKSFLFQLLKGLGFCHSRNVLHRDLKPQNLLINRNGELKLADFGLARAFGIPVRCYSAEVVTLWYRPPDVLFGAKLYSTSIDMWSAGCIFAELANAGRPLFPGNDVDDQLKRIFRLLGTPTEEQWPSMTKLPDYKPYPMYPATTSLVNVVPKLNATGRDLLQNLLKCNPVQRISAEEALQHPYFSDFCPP
Sequence of Cyclin-dependent kinase 5/CDK5 activator 1 (Q15078 whole entry, further chain): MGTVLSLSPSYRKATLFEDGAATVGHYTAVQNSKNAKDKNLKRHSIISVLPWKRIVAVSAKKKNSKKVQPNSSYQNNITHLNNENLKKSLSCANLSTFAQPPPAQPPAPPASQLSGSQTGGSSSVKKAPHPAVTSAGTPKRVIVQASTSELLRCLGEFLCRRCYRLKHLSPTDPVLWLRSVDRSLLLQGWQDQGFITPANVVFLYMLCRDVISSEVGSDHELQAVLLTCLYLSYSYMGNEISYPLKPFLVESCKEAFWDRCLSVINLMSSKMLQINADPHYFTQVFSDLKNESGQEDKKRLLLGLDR
Sequence of Glycogen synthase kinase-3 alpha (P49840 whole entry): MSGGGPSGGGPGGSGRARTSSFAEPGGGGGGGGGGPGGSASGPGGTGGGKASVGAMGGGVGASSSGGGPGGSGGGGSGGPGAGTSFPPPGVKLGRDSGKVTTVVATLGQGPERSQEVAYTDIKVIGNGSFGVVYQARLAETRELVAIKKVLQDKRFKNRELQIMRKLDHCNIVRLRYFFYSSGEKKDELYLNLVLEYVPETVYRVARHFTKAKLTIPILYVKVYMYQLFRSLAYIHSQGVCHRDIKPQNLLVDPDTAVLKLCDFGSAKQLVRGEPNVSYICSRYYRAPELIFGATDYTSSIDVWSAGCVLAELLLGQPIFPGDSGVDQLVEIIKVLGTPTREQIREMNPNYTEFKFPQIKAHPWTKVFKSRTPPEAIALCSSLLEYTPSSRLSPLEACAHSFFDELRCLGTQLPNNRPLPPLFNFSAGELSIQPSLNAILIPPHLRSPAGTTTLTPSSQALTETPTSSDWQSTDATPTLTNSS
Sequence of Glycogen synthase kinase-3 beta (P49841 whole entry): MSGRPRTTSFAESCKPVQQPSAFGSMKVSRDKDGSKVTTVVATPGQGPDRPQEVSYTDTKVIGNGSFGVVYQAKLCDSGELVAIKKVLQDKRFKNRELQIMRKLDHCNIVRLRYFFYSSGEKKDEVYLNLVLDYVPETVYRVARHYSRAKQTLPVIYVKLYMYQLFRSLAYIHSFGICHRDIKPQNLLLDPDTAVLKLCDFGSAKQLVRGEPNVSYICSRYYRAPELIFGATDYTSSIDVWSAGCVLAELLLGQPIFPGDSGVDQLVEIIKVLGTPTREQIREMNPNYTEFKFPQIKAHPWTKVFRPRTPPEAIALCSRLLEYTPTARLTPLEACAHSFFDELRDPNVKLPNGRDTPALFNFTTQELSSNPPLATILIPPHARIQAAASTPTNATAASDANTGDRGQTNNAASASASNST
Sequence of Voltage-gated inwardly rectifying potassium channel KCNH2 (Q12809 whole entry): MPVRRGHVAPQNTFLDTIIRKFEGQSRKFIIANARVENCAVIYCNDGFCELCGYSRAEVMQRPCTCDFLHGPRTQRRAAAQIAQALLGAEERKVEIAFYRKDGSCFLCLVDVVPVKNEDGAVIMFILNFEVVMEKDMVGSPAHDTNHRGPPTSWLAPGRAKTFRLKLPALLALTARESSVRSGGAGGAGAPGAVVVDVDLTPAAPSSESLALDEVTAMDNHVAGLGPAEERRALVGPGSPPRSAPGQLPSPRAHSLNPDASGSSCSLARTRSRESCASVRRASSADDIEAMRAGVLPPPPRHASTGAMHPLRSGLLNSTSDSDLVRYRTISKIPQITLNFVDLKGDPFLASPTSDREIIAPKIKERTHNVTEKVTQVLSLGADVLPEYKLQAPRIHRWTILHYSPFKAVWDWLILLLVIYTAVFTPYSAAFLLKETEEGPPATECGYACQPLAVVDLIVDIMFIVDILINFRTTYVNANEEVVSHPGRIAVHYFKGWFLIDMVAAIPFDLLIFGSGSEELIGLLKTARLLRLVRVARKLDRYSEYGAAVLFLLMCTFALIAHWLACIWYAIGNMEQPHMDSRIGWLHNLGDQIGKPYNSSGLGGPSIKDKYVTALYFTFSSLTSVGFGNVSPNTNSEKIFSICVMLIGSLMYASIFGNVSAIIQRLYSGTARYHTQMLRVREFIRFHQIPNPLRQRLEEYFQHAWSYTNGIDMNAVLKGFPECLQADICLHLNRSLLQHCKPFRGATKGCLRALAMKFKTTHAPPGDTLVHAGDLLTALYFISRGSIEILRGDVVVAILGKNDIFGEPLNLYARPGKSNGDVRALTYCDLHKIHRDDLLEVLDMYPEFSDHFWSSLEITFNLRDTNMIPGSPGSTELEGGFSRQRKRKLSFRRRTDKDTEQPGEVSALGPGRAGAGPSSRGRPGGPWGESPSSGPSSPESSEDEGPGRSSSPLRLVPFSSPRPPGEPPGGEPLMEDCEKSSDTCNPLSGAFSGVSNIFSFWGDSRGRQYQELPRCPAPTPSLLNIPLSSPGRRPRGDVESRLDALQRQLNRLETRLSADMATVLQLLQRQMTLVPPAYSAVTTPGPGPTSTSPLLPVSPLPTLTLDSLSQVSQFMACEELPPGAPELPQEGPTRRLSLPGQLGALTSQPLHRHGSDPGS
Sequence of Eukaryotic translation initiation factor 4E (P63073 whole entry): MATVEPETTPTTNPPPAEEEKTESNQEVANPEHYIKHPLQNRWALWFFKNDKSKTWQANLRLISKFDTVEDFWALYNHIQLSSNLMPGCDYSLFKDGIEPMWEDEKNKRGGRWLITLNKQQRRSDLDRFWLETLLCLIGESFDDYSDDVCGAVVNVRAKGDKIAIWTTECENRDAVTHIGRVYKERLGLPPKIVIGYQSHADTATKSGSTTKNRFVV
Sequence of Beta Lactamase (Q932Y6 whole entry): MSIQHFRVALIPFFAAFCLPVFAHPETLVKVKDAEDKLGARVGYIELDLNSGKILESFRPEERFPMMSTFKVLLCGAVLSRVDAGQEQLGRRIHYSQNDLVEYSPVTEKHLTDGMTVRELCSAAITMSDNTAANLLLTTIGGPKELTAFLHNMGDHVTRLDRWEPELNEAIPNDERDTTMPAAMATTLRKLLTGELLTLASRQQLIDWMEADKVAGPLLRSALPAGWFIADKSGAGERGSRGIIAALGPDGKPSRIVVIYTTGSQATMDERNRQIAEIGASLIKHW

Which AC50 [1] does the source give for COc1ccccc1N1CCN(CCN(C(=O)C2CCCCC2)c2ccccn2)CC1 here?
The AC50 was 31.6 µM (inconclusive).

Which AC50 [2] does the source give for N#CCCn1cc(C(CC(=O)c2ccc(Br)cc2)C(=O)O)c2ccccc21 (stereo unspecified) here?
The AC50 was > 100 µM (inactive).

And the EC50 [3]?
The EC50 was 22.9 µM (active).

Which results are given for Cc1ccc(Oc2c(C(N)=O)cc([N+](=O)[O-])cc2[N+](=O)[O-])cc1?
AC50 [4]: 4.73 µM (active); AC50 [5]: 11.9 µM (active); AC50 (A-375 [6]): > 11 µM (active); AC50 [7]: 2.99 µM (active); AC50 [8]: 3.68 µM (active); AC50 [9]: 25.2 µM (active); AC50 (A-375 [10]): > 11 µM (active); IC50 [11]: > 64 µM (inactive); CC50 [12]: 22.4 µM (active); IC50 (cells): 1.31 µM (active); IC50 (Beta-galactosidase): > 66.6 µM (inactive)

With Cc1ccc(S(=O)(=O)N=C(N)Nc2nc(C)c3cc(C)ccc3n2)cc1 as the molecule, how does the AC50 (DNA topoisomerase) read?
Its AC50 is 14.2 µM (active).

Which EC50 [13] does the source give for COc1ccc(OC)c(/C=C/c2nc3ccccc3nc2O)c1 here?
Its EC50 is > 99 µM (inactive).

What about the IC50 (Beta Lactamase) of the same molecule?
Its IC50 is 8.5 µM (active).

And the EC50 [14]?
Its EC50 is > 99 µM (inactive).

And the IC50 (CHO)?
The IC50 was 28.4 µM (inactive).

For O=Nc1c(-c2cccc([N+](=O)[O-])c2)nc2ncccn12, which EC50 [15] is on record?
Its EC50 is 0.828 µM (active).

What about the IC50 (Large T antigen) of the same molecule?
Its IC50 is 32.5 µM (active).

And the EC50 [16]?
The EC50 was 1.11 µM (active).

What about the EC50 [17] of the same molecule?
The EC50 was 0.826 µM (active).

What about the EC50 [18] of the same molecule?
Its EC50 is > 160 µM (inconclusive).

With Cc1ccc(C(=O)O/N=C(\N)c2ccc(Br)cc2)cc1 as the molecule, how does the AC50 (HeLa) read?
The AC50 was 48.5 µM (active).

With CCOCCCNC(=O)CSCc1nc(-c2ccc(OCC)cc2)oc1C as the molecule, how does the IC50 (HEK293 [19]) read?
Its IC50 is > 80 µM (inactive).

And the IC50 (HEK293 [20])?
Its IC50 is > 80 µM (inactive).

And the IC50 (Jurkat)?
Its IC50 is 51.9 µM (inactive).

What does the source list for COc1cc(/C=N/Nc2ccc([N+](=O)[O-])cn2)cc(OC)c1O?
AC50 [21]: 1.55 µM (active); AC50 [22]: 0.367 µM (active); AC50 [23]: 0.095 µM (active)

With CC12CCC(=O)C=C1CCC1C2C(O)CC2(C)C1CCC2(O)C(=O)CO (stereo unspecified) as the molecule, how does the AC50 [24] read?
The AC50 was > 52 µM (inactive).

Which AC50 (Candida albicans [25]) does the source give for O=C(C1CCCC1)N1CCN(c2ccnc3cc(Cl)ccc23)CC1 here?
The AC50 was 1.71 µM (active).

What about the AC50 (Candida albicans [26]) of the same molecule?
Its AC50 is 0.566 µM (active).

And the AC50 (Candida albicans [27])?
Its AC50 is 2.08 µM (active).

What about the AC50 (Candida albicans [28]) of the same molecule?
The AC50 was 2.01 µM (active).
